In patent publication US10213451B2, “Methods and compounds for modulating the secretion or expression of adhesion proteins or angiopoietins of cells” (PACIFIC ARROW LIMITED, priority 2004, dated 2019):
Values after ≈ are worked out from the molar mass of the structure shown.

Experiments:
[1] = system: Fibronectin secretion from bladder carcinoma cells (HTB-9); assay: Fibronectin secretion (Western blot), HTB-9 cells; format: cell-based, human; settings: 10 ug/ml; for inhibition at 10 µg/mL: Homo sapiens
[2] = system: Fibronectin secretion from brain glioblastoma T98G cells; assay: Fibronectin secretion (Western blot), T98G cells; format: cell-based, human; settings: for % inhibition of Fibronectin secretion / inhibition at 10 µg/mL: 10 ug/ml
[3] = system: Fibronectin secretion from lung carcinoma cells (H460); assay: Fibronectin secretion (Western blot), H460 cells; format: cell-based, human; settings: for % inhibition of Fibronectin secretion: H460 cells; for % inhibition of Fibronectin secretion / inhibition at 10 µg/mL: 10 ug/ml
[4] = system: Fibronectin secretion from ES2 cells; assay: Fibronectin secretion (Western blot), ES2 cells; format: cell-based, human; settings: 10 ug/ml; for % inhibition of Fibronectin secretion: ES2 cells; for inhibition at 10 µg/mL: Homo sapiens, ES-2, ES2 cells
Method: Inhibition of Fibronectin secretion is physiological and the determination of its quantity is based on the following criteria: • 1. Fibronectin is secreted from viable cells. Only cell with over 85% viable cells after drug-treatment are employed in these experiments. The viable cells were determined by MTT assay. • 2. For comparison, the immuno-band intensity from each samples are normalized with cell mass. The cell mass was determined by the MTT assay and is assigned as a MTT unit for each cell sample.
Cells: ES2 cells were grew in T-25 flask with RPMI 1640 medium over night before drug-treatment. Drug-treatment: cells cultures were replaced with fresh RPMI medium with Xanifolia-Y (10 ug/ml final concentration) or DMSO (as control) at 0 hour. At 1, 2, 4, 8 and 24 hour, aliquot of culture medium was taken out for Fibronectin determination. Fibronectin was determined by Western blot with monoclonal antibody (SIGMA) specific to human Fibronectin only.
Drug-treatment: cells cultures were replaced with fresh RPMI medium containing Xanifolia-Y (10 ug/ml final concentration) or DMSO (as control) at 0 hour. At 4 hours (A) or 8 hour (B), culture medium was replaced with fresh culture medium without drug. At 2, 4, 8 and 24 hour, aliquot of culture medium was taken out for Fibronectin determination. Fibronectin (FN) was determined by Western blot with monoclonal antibody (SIGMA) specific only to human Fibronectin.
(§1) Drug-treatment: cells cultures were replaced with fresh RPMI medium containing Xanifolia-Y (10 ug/ml final concentration) or DMSO (as control) at 0 hour. At 2, and 18 hour, aliquot of culture medium was taken out for Fibronectin determination (Western blot method). Cell viability at 18 hours was determined by MTT assay. Cultures were replaced with RPMI medium with MTT and incubated for an hour. The formation of formazan was dissolved in DMSO and OD at 570 nm was measured.
Cells and Drug-treatment: same as previous experiments. After 7 or 24 hours, aliquot of culture medium was taken out for Fibronectin determination (Western blot method). Cell viability at 24 hours was determined by MTT assay.
Cells: ES2 cells were grew in RPMI 1640 medium over night before drug-treatment. Drug-treatment: cells cultures were replaced with fresh RPMI medium containing DMSO (as control) [D]; Xanifolia-Y (10 ug/ml) [Y]; or Paclitaxel 10 or 50 ng/ml [T10, ro T50]. After 24 hours, aliquot of culture medium was taken out for Fibronectin determination (Western blot method). Cell viability at 24 hours was determined by MTT assay.
The amount of Fibronectin secreted by cells into medium was determined by Western blot assay. The amount of Fibronectin secreted per cells basis was determined by dividing the Western-band intensity with the MTT unit.
Western Blot: Spent culture medium (0.6 ml) was mixed with SDS sample buffer (0.2 ml), boiled for 3 minutes before loading to SDS gel. Samples (60 ul/lane) were applied to a 6% SDS gel and electrophoresis was conducted with 100 volts for 2 hours. Protein was transferred to a nitrocellulose paper electrophoretically (30 min at 100 volts). The Western blot was incubated with the first antibody (mouse anti-FN, specific to human FN, SIGMA F0916) and second antibody (Anti-mouse IgG AP conjugated, Promega S3721). The immunobands were developed with BCIP/NBT color development system (Promega S3771).

[5] = system: Fibronectin secretion from skin SK-Mel-5 cells; assay: Fibronectin secretion (Western blot), SK-MEL-5 cells; format: cell-based, human; settings: for % inhibition of Fibronectin secretion / inhibition at 10 µg/mL: 10 ug/ml
[6] = system: Fibronectin secretion from liver HepG2 cells; assay: Fibronectin secretion (Western blot), HepG2 cells; format: cell-based, human; settings: 10 ug/ml; for % inhibition of Fibronectin secretion: HepG2 cells; for inhibition at 10 µg/mL: Homo sapiens, HepG2, HepG2 cells
(Skin) SK-MELS = assay: MTT assay SK-MEL-5; format: cell-based, human
Method: (§2) Cells. Human cancer cell lines were obtained from American Type Culture Collection: HTB-9 (bladder), HeLa-S3 (cervix), DU145 (prostate), H460 (lung), MCF-7 (breast), K562 (leukocytes), HCT116 (colon), HepG2 (liver), U2OS (bone), T98G (brain), SK-MEL-5 (Skin) and OVCAR-3 (ovary). The cells were grown in following culture media: HeLa-53, DU145, MCF-7, Hep-G2 and T98G are in MEN (Earle's salts); HTB-9, H460, K562 and OVCAR-3 in RPMI-1640; HCT-116 and U2OS in McCoy-5A. They are supplemented with 10% fetal calf serum, glutamine and antibiotics, and incubated in an incubator with 5% CO2 humidified at 37° C.
(§3) MTT Assay. The procedure for MTT assay followed the method described by Carmichael et al. (1987) with modifications. […] The formazan (product of the reduction of tetrazolium by viable cells) formed and was dissolved with DMSO and the O.D. at 490 nm, and was measured by an ELISA reader. The MTT level of the cells before drug-treatment was also measured (T0). The % cell-growth (% G) is calculated as: % G=(TD−T0/TC−T0)×100(1), where TC or TD represents O.D. readings of control or drug-treated cells. When T0>TD, then the cytotoxicity (LC) expressed as % of the control is calculated as: % LC=(TD−T0/T0)×100(2).

(Prostate) DU145 = assay: MTT assay DU145; format: cell-based, human
Method: as §2, §3

ES2(ovarian) cells = assay: MTT assay ES2; format: cell-based, human; settings: ES2 cells
Method: (§4) MTT Assay. The procedure for MTT assay followed the method described by Carmichael et al. (1987) with modifications. The cells were seeded into a 96-well plate at concentration of 10,000/well for HTB-9, HeLa, H460, HCT116, T98G and OVCAR-3), 15,000/well for DU145, MCF-7, HepG2 and U2OS), and 40,000/well for K562 for 24 hours before drug-treatment. The cells were then exposed to the drugs for 48 hours (72 hours for HepG2 and U2OS, and 96 hours for MCF-7). After the drug-treatment, MTT (0.5 mg/mL) was added to cultures and incubated for an hour. The formazan (product of the reduction of tetrazolium by viable cells) formed and was dissolved with DMSO and the O.D. at 490 nm, and was measured by an ELISA reader. The MTT level of the cells before drug-treatment was also measured (T0). The % cell-growth (% G) is calculated as: % G=(TD−T0/TC−T0)×100(1), where TC or TD represents O.D. readings of control or drug-treated cells. When T0>TD, then the cytotoxicity (LC) expressed as % of the control is calculated as: % LC=(TD−T0/T0)×100(2).
Methods: ES2 cells were exposed to (i) Xanifolia-Y with concentrations of 40, 20, 10, 5, 2.5, and 1.25 ug/ml; or (ii) Paclitaxel with concentrations of […]; or (iii) Combined Xanifolia-Y and Paclitaxel with concentrations of each drug in same order (for example, 40 ug/ml Y plus 10 ng/ml T; 20 ug/ml Y plus 5 ng/ml T, etc. please see FIG. 28). Cells growth under these conditions was determined by the MTT assay.
as §1

[7] = system: (bladder)TB9 cells / HTB-9; assay: MTT assay bladder cells; format: cell-based, human; settings: (bladder)TB9 cells
Method: as §2, §4

(Breast)MCF7 = assay: MTT assay MCF7; format: cell-based, human
Method: as §2, §3

(Liver) HepG2 = assay: MTT assay HepG2; format: cell-based, human
Method: as §2, §3

tumor growth = assay: MTT anticancer activity of Y, X and hydrolysis products (FIG. 4C); format: cell-based; settings: FIG. 4C; read-out: IC50, inhibits tumor growth / anticancer activity
Method: as §4
(A) Alkaline Hydrolysis of Xanifolia-Y: 20 mg of Xanifolia-Y was dissolved in 0.5 mL of 1M NaOH. The solution was incubated in an 80° C. water bath for 4 hours. It was cooled to room temperature before being neutralized with 0.5 mL 1 N HCl (adjusted pH to about 3). The mixture was extracted with 2 mL 1-butanol 3 times. The butanol fractions were collected and lyophilized. The hydrolyzed saponin was further purified with HPLC in a C-18 column eluted with 25% acetonitrile.
(B) Acid Hydrolysis of Xanifolia-Y: 15 mg Xanifolia-Y was dissolved in 1 mL of Methanol. 1 mL of 2N HCl was then added. The mixture was refluxed in an 80° C. water bath for 5 hours. The solution was then neutralized by adding 2 mL of 1N NaOH (to a final pH 3-4). The aglycone was then extracted with ethylacetate 3 mL×3. The extracts were collected and pooled. Further isolation of aglycone (sugar-removed Xanifolia-Y) was achieved by HPLC with isocratic elution of 80% acetonitrile.

ovarian cancer cells = assay: MTT assay, growth of ovarian cancer cells (FIG. 3A, 3B); format: cell-based; settings: Homo sapiens, read-out: IC50, inhibiting growth of ovarian cancer cells
Method: as §2, §3

[8] = Homo sapiens, NCI-H460, H460 cells

| SMILES | % inhibition of Fibronectin secretion [1] [%] | % inhibition of Fibronectin secretion [2] [%] | % inhibition of Fibronectin secretion [3] [%] | % inhibition of Fibronectin secretion [4] [%] | % inhibition of Fibronectin secretion [5] [%] | % inhibition of Fibronectin secretion [6] [%] | inhibition at 10 µg/mL [1] [%] | inhibition at 10 µg/mL [4] [%] | inhibition at 10 µg/mL [6] [%] | inhibition at 10 µg/mL ([2]; Homo sapiens) [%] | inhibition at 10 µg/mL [3, 8] [%] | inhibition at 10 µg/mL ([5]; Homo sapiens) [%] | further results |
| --- | --- | --- | --- | --- | --- | --- | --- | --- | --- | --- | --- | --- | --- |
| CC=C(C)C(=O)OC1C(OC(=O)c2ccccc2)C(C)(C)CC2C3=CCC4C5(C)CCC(OC6OC(C(=O)OC)C(O)C(OC7OCC(O)C(O)C7O)C6OC6OC(CO)C(O)C(O)C6O)C(C)(C)C5CCC4(C)C3(C)CC(O)C21CO [Ba4, 3-O-[β-D-galactopyranosyl(1→2)]-β-D-xylopyranosyl (1→3)-β-D-methylglucuronopyranosyl-21-O-benzoyl, 22-O-angeloyl-3β, 15α, 21β, 22α, 28-pentahydroxyolean-12-ene] | 30 | 24 | 18 | 28 | 10 | 28 |  |  |  |  |  |  |  |
| CC=C(C)C(=O)OC1C(OC(=O)C(C)=CC)C23C(O)CC4(C)C5(C)CCC6C(C)(C)C(OC7OC(C(=O)O)C(O)C(OC8OC(CO)C(O)C(O)C8OC8OC(C)C(O)C(O)C8OC8OC(C)C(O)C(O)C8O)C7OC7OC(CO)C(O)C(O)C7O)CCC6(C)C5CCC4(OC2O)C3CC1(C)C (centres unmarked) [Mb5] | 28 | 33 | 25 | 35 | 15 | 35 |  |  |  |  |  |  | IC50 ((Skin) SK-MELS): 25 µg/mL (≈ 17.1 µM); IC50 ((Prostate) DU145): 7.6 µg/mL (≈ 5.19 µM); IC50 (ES2(ovarian) cells): 6.5 µg/mL (≈ 4.44 µM); IC50 [7]: 6.5 µg/mL (≈ 4.44 µM); IC50 ((Breast)MCF7): 11 µg/mL (≈ 7.52 µM); IC50 ((Liver) HepG2): 6.5 µg/mL (≈ 4.44 µM) |
| C/C=C(/C)C(=O)O[C@H]1[C@H](OC(C)=O)C(C)(C)CC2C3=CCC4[C@@]5(C)CC[C@H](O[C@@H]6OC(C(=O)OCCCC)[C@@H](O)C(O[C@@H]7O[C@@H](CO)C(O)C7O)C6O[C@@H]6OC(CO)[C@H](O)C(O)C6O)C(C)(C)C5CC[C@@]4(C)[C@]3(C)C[C@@H](O)[C@]21CO (stereo partly drawn) [X, 3-O-{[β-D-galactopyranosyl (1→2)]-[α-L-arabinofuranosyl (1→3)]-β-D-glucuronopyranosidebutyl ester}-21-O-acetyl-22-O-angeloyl-3β,16α,21β,22α,28-pentahydroxyolean-12-ene] |  |  |  |  |  |  | 38 | 39 | 42 |  |  |  | inhibition at 20 µg/mL ([2]; Homo sapiens, T98G, 20 ug/ml): 52%; inhibition at 20 µg/mL ([3]; Homo sapiens, NCI-H460, H460 cells, 20 ug/ml): 37%; IC50 (tumor growth): 6 µg/mL (≈ 5.26 µM); inhibition at 20 µg/mL ([5]; Homo sapiens, 20 ug/ml): 15%; IC50 (ovarian cancer cells): 30 µg/mL (≈ 26.3 µM) |
| C/C=C(/C)C(=O)O[C@H]1[C@H](OC(=O)C(C)C)[C@@]2(CO)C(CC1(C)C)C1=CCC3[C@@]4(C)CC[C@H](O[C@@H]5OC(C(=O)O)[C@@H](O)C(O[C@@H]6O[C@@H](CO)C(O)C6O)C5O[C@@H]5OC(CO)[C@H](O)C(O)C5O)C(C)(C)C4CC[C@@]3(C)[C@]1(C)[C@@H](O)[C@H]2O (stereo partly drawn) [Xanifolia Y0, 3-O-[β-D-galactopyranosyl(1→2)]-α-L-arabinofuranosyl(1→3)-β-D-glucuronopyranosyl-21-O-angeloyl, 22-O-(2-methylpropanoyl)-3β, 15α, 16α, 21β, 22α, 28-hexahydroxyolean-12-ene] |  |  |  |  |  |  | 32 | 34 | 40 | 22 | 22 | 27 |  |
| C/C=C(/C)C(=O)O[C@@H]1C(O)[C@H](O[C@H]2[C@H](OC(C)=O)[C@@]3(CO)C(CC2(C)C)C2=CCC4[C@@]5(C)CC[C@H](O[C@@H]6OC(C(=O)O)[C@@H](O)[C@@H](O[C@@H]7O[C@@H](CO)[C@@H](O)C7O)C6O[C@@H]6OC(CO)[C@H](O)[C@@H](O)C6O)C(C)(C)C5CC[C@@]4(C)[C@]2(C)C[C@H]3O)OC(C)[C@@H]1OC(=O)/C(C)=C\C (stereo partly drawn) [Xanifolia Y1, 3-O-[β-D-galactopyranosyl (1→2)]-α-L-arabinofuranosyl (1→3)-β-D-glucuronopyranosyl-21-O-(3,4-diangeloyl)-α-L-rhamnophyranosyl-22-O-acetyl-3β,16α, 21β, 22α, 28-pentahydroxyolean-12-ene] |  |  |  |  |  |  | 50 | 41 | 33 | 40 | 13 | 10 |  |
